Source: publication PMC10176470, “Engaging a Non-catalytic Cysteine Residue Drives Potent and Selective Inhibition of Caspase-6” (Journal of the American Chemical Society, 2023)

Assays:
Format in all cases: cell-based
[1] = target: proteins of HEK293T cells transiently overexpressing caspase-6 (Homo sapiens, UniProt Q9UEG4)
[2] = target: T1, proteins of HEK293T cells transiently overexpressing caspase-6 (Homo sapiens, UniProt P78417); conditions: protein GSTO1 (P78417)
T1 sequence (P78417 1-241): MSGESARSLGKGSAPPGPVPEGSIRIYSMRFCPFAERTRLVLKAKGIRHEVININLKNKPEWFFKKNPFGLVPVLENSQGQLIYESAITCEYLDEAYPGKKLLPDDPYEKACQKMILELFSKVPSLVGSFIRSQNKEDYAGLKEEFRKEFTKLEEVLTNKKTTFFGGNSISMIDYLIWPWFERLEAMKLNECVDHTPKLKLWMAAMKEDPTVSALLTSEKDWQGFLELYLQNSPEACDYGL

[3] = target: proteins of HEK293T cells transiently overexpressing caspase-6 (Homo sapiens, UniProt P60900); conditions: exp_ref Probe; protein PSMA6 (P60900); analysis C6
Chain of proteins of HEK293T cells transiently overexpressing caspase-6 (Homo sapiens, UniProt P60900) (P60900 whole entry): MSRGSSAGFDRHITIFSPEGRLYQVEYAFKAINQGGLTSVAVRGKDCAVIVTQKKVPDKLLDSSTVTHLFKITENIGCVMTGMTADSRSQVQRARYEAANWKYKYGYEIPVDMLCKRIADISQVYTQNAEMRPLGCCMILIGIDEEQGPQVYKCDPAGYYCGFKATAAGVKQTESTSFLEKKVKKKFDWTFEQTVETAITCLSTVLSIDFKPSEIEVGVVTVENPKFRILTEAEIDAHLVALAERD

[4] = target: T2, proteins of HEK293T cells transiently overexpressing caspase-6 (Homo sapiens, UniProt P30101); conditions: protein PDIA3 (P30101)
T2 sequence (P30101 25-505): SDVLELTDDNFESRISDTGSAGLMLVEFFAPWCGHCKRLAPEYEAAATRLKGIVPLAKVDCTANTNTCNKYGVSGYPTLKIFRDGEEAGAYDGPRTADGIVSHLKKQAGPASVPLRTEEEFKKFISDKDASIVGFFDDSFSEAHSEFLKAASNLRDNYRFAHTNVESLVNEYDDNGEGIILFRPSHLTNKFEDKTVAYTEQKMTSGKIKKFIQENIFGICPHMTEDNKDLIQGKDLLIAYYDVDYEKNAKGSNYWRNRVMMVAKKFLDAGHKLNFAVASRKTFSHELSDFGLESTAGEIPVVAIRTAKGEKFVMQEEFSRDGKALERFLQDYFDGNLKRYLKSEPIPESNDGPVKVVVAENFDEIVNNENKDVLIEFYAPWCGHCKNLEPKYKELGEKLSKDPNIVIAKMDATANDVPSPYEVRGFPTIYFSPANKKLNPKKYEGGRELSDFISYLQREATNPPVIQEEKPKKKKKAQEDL

[5] = target: T3, proteins of HEK293T cells transiently overexpressing caspase-6 (Homo sapiens, UniProt P40926); conditions: protein MDH2 (P40926)
T3 sequence (P40926 25-338): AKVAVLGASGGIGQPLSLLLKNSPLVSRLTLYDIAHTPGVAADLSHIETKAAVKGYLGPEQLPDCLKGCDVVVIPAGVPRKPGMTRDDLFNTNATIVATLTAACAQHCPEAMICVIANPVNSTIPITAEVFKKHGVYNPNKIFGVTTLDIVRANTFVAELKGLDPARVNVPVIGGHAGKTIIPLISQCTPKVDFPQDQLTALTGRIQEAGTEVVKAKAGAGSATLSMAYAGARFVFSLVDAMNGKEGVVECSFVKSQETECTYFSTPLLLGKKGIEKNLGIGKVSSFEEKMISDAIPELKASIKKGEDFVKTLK

[6] = target: proteins of HEK293T cells transiently overexpressing caspase-6 (Homo sapiens, UniProt Q9Y617); conditions: Probe; protein PSAT1 Q9Y617
Chain of proteins of HEK293T cells transiently overexpressing caspase-6 (Homo sapiens, UniProt Q9Y617) (Q9Y617 whole entry): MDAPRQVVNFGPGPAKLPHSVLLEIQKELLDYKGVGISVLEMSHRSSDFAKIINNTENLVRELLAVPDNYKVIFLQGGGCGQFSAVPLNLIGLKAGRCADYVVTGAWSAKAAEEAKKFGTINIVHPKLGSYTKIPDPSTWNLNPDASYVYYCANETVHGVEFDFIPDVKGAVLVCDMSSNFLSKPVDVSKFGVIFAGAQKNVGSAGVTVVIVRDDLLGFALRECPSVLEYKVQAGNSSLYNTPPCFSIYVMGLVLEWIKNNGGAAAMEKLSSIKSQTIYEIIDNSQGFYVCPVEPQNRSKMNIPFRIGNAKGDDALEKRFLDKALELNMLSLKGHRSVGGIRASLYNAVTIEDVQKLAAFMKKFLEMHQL

[7] = target: proteins of HEK293T cells transiently overexpressing caspase-6 (Homo sapiens, UniProt P0DPI2); conditions: exp_ref Probe; protein C21orf33 (P30042); analysis C6
Chain of proteins of HEK293T cells transiently overexpressing caspase-6 (Homo sapiens, UniProt P0DPI2) (P0DPI2 42-268): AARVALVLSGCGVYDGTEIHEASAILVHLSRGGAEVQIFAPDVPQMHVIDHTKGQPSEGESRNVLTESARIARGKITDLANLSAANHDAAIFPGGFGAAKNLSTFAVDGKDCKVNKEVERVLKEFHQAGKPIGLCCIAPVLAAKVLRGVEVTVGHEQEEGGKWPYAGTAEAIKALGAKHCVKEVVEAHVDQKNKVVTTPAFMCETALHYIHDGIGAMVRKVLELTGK

[8] = target: proteins of HEK293T cells transiently overexpressing caspase-6 (Homo sapiens, UniProt Q16576); conditions: exp_ref Probe; protein RBBP7 (Q16576); analysis C6
Chain of proteins of HEK293T cells transiently overexpressing caspase-6 (Homo sapiens, UniProt Q16576) (Q16576 whole entry): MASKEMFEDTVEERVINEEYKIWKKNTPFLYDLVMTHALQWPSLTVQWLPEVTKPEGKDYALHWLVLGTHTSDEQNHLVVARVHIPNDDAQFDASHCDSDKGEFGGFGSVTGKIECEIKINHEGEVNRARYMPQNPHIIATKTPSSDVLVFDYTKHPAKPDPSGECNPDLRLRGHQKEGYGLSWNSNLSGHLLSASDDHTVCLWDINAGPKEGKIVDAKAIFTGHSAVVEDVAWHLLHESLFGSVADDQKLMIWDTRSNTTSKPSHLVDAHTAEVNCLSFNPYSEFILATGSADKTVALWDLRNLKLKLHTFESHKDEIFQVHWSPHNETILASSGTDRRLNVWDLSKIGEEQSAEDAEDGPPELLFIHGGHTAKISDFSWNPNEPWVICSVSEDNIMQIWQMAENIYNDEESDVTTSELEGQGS

[9] = target: proteins of HEK293T cells transiently overexpressing caspase-6 (Homo sapiens, UniProt Q9BT22); conditions: exp_ref Probe; protein ALG1 (Q9BT22); analysis C6
Chain of proteins of HEK293T cells transiently overexpressing caspase-6 (Homo sapiens, UniProt Q9BT22) (Q9BT22 whole entry): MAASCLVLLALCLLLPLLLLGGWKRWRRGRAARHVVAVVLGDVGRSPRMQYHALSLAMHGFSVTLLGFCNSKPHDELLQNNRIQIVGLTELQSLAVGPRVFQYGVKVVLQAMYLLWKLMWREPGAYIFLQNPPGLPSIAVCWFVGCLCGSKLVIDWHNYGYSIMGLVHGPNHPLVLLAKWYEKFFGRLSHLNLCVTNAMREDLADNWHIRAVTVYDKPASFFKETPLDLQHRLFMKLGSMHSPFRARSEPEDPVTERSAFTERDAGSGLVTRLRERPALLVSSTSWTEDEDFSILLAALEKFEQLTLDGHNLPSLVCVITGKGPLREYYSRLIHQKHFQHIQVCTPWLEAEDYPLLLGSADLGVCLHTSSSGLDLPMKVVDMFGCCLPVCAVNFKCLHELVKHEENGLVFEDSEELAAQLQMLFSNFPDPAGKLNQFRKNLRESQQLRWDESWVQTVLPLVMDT

[10] = target: proteins of HEK293T cells transiently overexpressing caspase-6 (Homo sapiens, UniProt P49327); conditions: exp_ref Probe; protein FASN (P49327); analysis C6
[11] = target: proteins of HEK293T cells transiently overexpressing caspase-6 (Homo sapiens, UniProt Q9Y265); conditions: Probe; protein RUVBL1 Q9Y265
Chain of proteins of HEK293T cells transiently overexpressing caspase-6 (Homo sapiens, UniProt Q9Y265) (Q9Y265 whole entry): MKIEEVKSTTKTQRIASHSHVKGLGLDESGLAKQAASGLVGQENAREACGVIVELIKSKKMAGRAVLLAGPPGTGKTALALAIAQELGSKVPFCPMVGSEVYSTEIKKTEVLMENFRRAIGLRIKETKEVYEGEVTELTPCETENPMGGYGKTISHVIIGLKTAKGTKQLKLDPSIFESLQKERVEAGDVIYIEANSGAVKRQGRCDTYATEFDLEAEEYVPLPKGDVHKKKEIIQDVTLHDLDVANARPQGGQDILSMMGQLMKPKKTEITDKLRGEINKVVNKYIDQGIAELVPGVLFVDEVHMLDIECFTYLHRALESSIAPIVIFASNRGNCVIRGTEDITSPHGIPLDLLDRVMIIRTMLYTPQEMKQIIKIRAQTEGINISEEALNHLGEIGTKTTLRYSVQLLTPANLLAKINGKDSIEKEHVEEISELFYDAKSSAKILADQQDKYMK

[12] = target: proteins of HEK293T cells transiently overexpressing caspase-6 (Homo sapiens, UniProt P23246); conditions: exp_ref Probe; protein SFPQ (P23246); analysis C6
Chain of proteins of HEK293T cells transiently overexpressing caspase-6 (Homo sapiens, UniProt P23246) (P23246 whole entry): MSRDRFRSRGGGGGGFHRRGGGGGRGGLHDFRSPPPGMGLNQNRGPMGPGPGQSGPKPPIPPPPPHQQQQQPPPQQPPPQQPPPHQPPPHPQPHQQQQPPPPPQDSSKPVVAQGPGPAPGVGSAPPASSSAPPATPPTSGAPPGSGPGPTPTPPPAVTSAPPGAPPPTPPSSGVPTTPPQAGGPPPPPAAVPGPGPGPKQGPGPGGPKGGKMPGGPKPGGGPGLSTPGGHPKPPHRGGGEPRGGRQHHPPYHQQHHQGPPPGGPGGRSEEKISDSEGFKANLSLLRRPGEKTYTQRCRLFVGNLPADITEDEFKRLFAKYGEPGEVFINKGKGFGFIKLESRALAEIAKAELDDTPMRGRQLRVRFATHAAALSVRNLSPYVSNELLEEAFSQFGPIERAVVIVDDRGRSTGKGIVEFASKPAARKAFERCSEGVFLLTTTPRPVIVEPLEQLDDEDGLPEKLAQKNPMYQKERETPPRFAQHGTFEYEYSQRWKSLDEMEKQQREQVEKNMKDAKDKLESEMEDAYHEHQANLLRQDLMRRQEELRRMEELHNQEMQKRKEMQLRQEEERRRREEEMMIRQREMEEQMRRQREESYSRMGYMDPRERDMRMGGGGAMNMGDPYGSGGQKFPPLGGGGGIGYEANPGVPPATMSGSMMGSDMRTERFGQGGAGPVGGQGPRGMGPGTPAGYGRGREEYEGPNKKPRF

[13] = target: T4, proteins of HEK293T cells transiently overexpressing caspase-6 (Homo sapiens, UniProt Q02978); conditions: protein SLC25A11 (Q02978), analysis C6
T4 sequence (Q02978 1-314): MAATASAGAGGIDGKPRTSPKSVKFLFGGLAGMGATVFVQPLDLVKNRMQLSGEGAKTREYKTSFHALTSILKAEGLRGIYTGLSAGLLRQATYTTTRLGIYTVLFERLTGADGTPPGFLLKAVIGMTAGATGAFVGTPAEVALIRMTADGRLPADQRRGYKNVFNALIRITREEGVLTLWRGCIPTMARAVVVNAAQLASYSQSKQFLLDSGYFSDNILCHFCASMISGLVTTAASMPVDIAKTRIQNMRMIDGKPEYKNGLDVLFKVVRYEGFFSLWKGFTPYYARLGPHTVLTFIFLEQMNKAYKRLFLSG

[14] = target: proteins of HEK293T cells transiently overexpressing caspase-6 (Homo sapiens, UniProt P54578); conditions: Probe; protein USP14 P54578
Chain of proteins of HEK293T cells transiently overexpressing caspase-6 (Homo sapiens, UniProt P54578) (P54578 whole entry): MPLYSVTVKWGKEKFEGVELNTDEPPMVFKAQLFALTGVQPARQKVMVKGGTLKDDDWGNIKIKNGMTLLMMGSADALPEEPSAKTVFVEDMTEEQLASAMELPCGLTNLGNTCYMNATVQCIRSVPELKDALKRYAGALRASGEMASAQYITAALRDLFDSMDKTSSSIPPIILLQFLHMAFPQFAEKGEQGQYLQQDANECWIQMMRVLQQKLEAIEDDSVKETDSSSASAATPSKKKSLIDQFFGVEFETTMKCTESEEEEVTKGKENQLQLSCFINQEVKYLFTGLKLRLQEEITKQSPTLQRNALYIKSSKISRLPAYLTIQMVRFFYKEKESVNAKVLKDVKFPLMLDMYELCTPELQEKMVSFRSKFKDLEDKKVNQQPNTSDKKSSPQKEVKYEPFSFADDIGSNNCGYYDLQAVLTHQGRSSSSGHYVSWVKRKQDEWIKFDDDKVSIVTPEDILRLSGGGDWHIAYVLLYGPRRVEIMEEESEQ

[15] = target: proteins of HEK293T cells transiently overexpressing caspase-6 (Homo sapiens, UniProt P05141); conditions: exp_ref Probe; protein SLC25A5 (P05141); analysis C6
Chain of proteins of HEK293T cells transiently overexpressing caspase-6 (Homo sapiens, UniProt P05141) (P05141 whole entry): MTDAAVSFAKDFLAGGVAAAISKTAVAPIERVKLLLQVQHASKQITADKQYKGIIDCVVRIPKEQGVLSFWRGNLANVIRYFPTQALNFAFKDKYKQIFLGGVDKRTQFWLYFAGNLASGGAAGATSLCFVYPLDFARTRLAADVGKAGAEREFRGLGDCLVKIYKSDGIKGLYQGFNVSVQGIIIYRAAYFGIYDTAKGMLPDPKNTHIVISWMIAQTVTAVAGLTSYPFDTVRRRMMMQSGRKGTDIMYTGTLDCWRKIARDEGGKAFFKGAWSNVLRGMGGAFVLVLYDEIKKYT

Chain of proteins of HEK293T cells transiently overexpressing caspase-6 (Homo sapiens, UniProt Q9UEG4) (Q9UEG4 whole entry): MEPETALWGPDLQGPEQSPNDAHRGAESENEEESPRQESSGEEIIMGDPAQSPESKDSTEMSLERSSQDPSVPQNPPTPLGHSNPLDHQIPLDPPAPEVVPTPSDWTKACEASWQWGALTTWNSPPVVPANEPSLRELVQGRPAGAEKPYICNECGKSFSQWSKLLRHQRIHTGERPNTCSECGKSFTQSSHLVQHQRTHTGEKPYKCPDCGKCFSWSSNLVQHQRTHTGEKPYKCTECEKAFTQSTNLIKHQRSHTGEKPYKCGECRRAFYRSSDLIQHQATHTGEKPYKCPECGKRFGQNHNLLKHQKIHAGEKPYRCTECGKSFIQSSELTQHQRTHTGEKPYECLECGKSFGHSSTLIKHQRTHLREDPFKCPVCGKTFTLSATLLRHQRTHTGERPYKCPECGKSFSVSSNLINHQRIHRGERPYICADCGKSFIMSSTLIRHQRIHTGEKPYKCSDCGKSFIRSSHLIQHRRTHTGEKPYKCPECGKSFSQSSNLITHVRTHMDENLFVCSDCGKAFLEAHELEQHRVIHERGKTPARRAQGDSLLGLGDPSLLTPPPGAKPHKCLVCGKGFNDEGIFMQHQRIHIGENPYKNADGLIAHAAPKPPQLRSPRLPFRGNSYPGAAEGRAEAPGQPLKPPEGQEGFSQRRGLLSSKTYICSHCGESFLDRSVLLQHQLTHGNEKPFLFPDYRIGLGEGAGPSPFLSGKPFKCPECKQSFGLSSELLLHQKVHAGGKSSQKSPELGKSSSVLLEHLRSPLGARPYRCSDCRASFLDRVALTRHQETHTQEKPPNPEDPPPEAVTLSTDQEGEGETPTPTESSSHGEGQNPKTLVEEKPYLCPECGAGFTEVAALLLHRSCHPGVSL

For `C#CCOc1ccc([C@@H]2C[C@@H](C(=O)Nc3ccc(OC(F)(F)F)cc3)CN(S(=O)(=O)C=C)C2)cc1` (relative stereo) [13-t], the enrich.exp.med ([1]; Probe, protein ZNF629 Q9UEG4) was -2.2193, the enrich.exp.med.lin ([1]; protein ZNF629 (Q9UEG4)) was 0.2147 and the enrich.exp.med.log2 ([1]; protein ZNF629 (Q9UEG4)) was -2.2193. It also gave an enrich.exp.med ([2]; exp_ref Probe, analysis C6) of 0.9115, an enrich.exp.med.lin [2] of 1.881 and an enrich.exp.med.log2 [2] of 0.9115. The enrich.exp.med [3] was -0.241, the enrich.exp.med ([4]; exp_ref Probe, analysis C6) was 0.6793 and the enrich.exp.med.lin [4] was 1.601. The enrich.exp.med.log2 [4] was 0.6793, the enrich.exp.med ([5]; exp_ref Probe, analysis C6) was 0.3462 and the enrich.exp.med.lin [5] was 1.2712. The enrich.exp.med.log2 [5] was 0.3462, the enrich.exp.med [6] was -1.015 and the enrich.exp.med [7] was -0.3681. For the same compound, the enrich.exp.med [8] was 0.6141, the enrich.exp.med [9] was 0.4836 and the enrich.exp.med [10] was -0.2577. It also gave an enrich.exp.med [11] of -0.45, an enrich.exp.med [12] of -0.1094 and an enrich.exp.med.lin ([13]; Expt Probe) of 7.305. For the same compound, the enrich.exp.med.log2 ([13]; Expt Probe) was 2.869, the enrich.exp.med ([13]; exp_ref Probe) was 2.869 and the enrich.exp.med [14] was -0.5802. The enrich.exp.med [15] was 0.9373.
